Data from US20100035257A1 (GENERAL HOSPITAL, published 2010).

Key:
[1] = system: MCF-10A cells; experiment: Chemosensitivity assay (MTT cell viability); assay type: cell-based, human; details: for effect of ectopic TAp73β expression on sensitivity: retroviral TAp73β vs control vector
Procedure: (§1) Chemosensitivity assay. Dose-response curves and IC50 values were determined using the methyl thiazolyl tetrazolium (MTT) cell viability assay as described previously (52). Cells were seeded into 96-well microtiter plates for 24 hours at a density of 5×10^3 per well. Serial drug dilutions were prepared in medium immediately before each assay and viable cell masses following 3 days or 5 days of drug exposure were determined by cell-mediated MTT reduction. Cell growth as well as drug activity were determined by measuring absorbance at 550 nm using an Anthos Labtec systems plate reader.

[2] = system: MDA-MB-468 cells; experiment: Chemosensitivity assay (MTT cell viability); assay type: cell-based, human
Procedure: as §1

[3] = system: HCC-1937 cells; experiment: Chemosensitivity assay (MTT cell viability); assay type: cell-based, human
Procedure: as §1

[4] = system: PUMA and NOXA; experiment: QRT-PCR of pro-apoptotic effector genes after drug treatment; assay type: cell-based, human
Procedure: ORT-PCR analysis. Total RNA from cells was extracted using STAT-60 RNA isolation solution (Tel-Test Inc., Friendswood, USA) according to manufacturer's protocol. First-strand cDNA was synthesized from total RNA using random hexamer primers and the SuperScript II system for RT-PCR (Invitrogen). Gene expression levels were measured by real-time QRT-PCR using the iQ SYBR Green Supermix reagent (Bio-Rad) and an OPTICON™ real-time PCR detector system (MJ Research). Data analysis was performed using OPTICON MONITOR™ Analysis Software V1.08 (MJ Research). The expression of each gene was normalized to GAPDH or B2M as a reference. The relative copy numbers were calculated from an 8-point standard curve generated from a ten fold serial dilution of full length cDNA constructs as described previously (15).
Specific forward and reverse primers (respectively) for ΔNp63 were: 5′-[…]-3′ and 5′-[…]-3′; for TAp63 were 5′-[…]-3′ and 5′-[…]-3′; for TAp73 were 5′-[…]-3′ and […]-3′; for ΔNp73 were 5′-[…]-3′ and 5′-[…]-3′; for GAPDH were: 5′-[…]-3′ and 5′-[…]-3′ and for detection of B2M were 5′-[…]-3′ and 5′-[…]-3′. The conditions for all QRT-PCR reactions were: 3 min at 94° C., followed by 40 sec at 94° C., 40 sec at 60° C. and 25 sec at 72° C. for 40 cycles. All PCR products were confirmed by the presence of a single-peak upon melting-curve analysis and by gel electrophoresis. No-template (water) reaction mixtures and “no reverse transcriptase” mixtures were performed on all samples as negative controls. All experiments were performed in duplicate.

[5] = system: ΔNp63α/TAp73 complex; experiment: Co-immunoprecipitation of the ΔNp63α/TAp73 complex
[6] = system: MCF-7 cells; experiment: Chemosensitivity assay (MTT cell viability); assay type: cell-based, human; details: TAp73 knockdown
Procedure: as §1

[7] = system: human breast cancer-derived cell lines; experiment: p73/p63 biomarker and in vitro cisplatin sensitivity; assay type: cell-based; details: Biomarker Positive cell lines
Procedure: as §1
Correlation of DNp63/TAp73 biomarker expression and cisplatin sensitivity in vitro. The inventors next established the threshold for DNp63/TAp73 biomarker expression that reflected the biochemcially-defined cisplatin sensitivity pathway. The inventors defined biomarker positivity as a DNp63/TAp73 ratio >2, a value that corresponds to the molar ratio of DNp63 required to inactivate essentially all (>99%) pro-apoptotic TAp73 through DNp63/TAp73 hetero-tetramer formation. The inventors assessed the ability of this defined biomarker threshold to predict cisplatin sensitivity in a limited number of human breast cancer-derived cell lines. As shown below in Table 2, the positively for the biomarker correlated with cisplatin sensitivity in these cells. […]

[8] = system: TAp73; experiment: IP/immunoblot for p73 tyrosine phosphorylation
[9] = biological target: T1, Y99F TAp73α (human, UniProt O15350 1-636); experiment: IP for p63 or p73 with immunoblot, MCF-10A cells with retroviral Y99F TAp73α, after cisplatin
T1 construct: Expressed via retrovirus in MCF-10A cells; also called site-specific Y99F mutant TAp73α
T1 sequence: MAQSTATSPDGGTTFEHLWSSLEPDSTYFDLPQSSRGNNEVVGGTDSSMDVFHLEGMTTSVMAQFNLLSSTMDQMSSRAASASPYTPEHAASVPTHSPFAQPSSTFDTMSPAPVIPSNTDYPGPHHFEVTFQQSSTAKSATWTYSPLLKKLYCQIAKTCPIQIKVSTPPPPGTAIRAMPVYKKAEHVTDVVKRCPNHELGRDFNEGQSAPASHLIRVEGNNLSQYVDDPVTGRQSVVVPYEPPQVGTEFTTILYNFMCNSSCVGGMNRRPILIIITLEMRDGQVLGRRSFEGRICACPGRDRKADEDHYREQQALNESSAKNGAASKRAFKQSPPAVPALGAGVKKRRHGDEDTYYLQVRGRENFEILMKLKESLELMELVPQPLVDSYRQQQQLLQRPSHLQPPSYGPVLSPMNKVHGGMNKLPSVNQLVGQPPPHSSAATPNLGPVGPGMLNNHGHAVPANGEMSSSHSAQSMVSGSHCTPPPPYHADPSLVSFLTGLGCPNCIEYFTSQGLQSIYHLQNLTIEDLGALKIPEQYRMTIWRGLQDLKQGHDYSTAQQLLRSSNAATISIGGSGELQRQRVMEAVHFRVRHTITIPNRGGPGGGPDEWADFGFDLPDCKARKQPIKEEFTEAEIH

[10] = biological target: T2, wild-type TAp73α (retrovirally expressed in MCF-10A cells) (human, UniProt O15350 1-636); experiment: co-IP, MCF-10A cells, untreated
T2 construct: Ectopic wild-type TAp73α expressed via retrovirus in MCF-10A cells; It is tyrosine phosphorylated after cisplatin treatment; Construct limits and tags are not described; also called retroviral TAp73α
T2 sequence: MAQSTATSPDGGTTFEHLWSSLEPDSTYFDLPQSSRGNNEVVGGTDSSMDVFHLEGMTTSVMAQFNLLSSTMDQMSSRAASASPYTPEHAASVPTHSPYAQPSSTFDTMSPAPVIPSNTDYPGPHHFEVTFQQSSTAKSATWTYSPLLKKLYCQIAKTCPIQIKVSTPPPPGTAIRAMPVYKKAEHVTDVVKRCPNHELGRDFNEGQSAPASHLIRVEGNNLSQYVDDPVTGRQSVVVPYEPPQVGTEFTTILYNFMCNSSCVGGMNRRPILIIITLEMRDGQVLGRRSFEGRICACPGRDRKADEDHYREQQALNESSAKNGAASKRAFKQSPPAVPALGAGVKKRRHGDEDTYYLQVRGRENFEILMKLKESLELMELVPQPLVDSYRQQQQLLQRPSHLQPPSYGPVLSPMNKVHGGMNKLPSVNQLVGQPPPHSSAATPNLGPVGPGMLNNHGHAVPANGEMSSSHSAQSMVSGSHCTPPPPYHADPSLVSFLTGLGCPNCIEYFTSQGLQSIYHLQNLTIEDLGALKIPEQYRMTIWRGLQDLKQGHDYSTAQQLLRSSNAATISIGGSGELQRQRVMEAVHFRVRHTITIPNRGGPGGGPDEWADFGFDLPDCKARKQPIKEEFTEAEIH

[11] = MCF-10A cells, cisplatin treatment

Molecule: CC(=O)O[C@H]1C(=O)[C@@]2(C)[C@H]([C@H](OC(=O)c3ccccc3)[C@]3(O)C[C@H](OC(=O)[C@H](O)[C@@H](NC(=O)c4ccccc4)c4ccccc4)C(C)=C1C3(C)C)[C@]1(OC(C)=O)CO[C@@H]1C[C@@H]2O [paclitaxel]
- effect of ectopic TAp73β expression on sensitivity [1]: did not significantly enhance sensitivity

Molecule: Cc1ccc(NC(=O)c2ccc(CN3CCN(C)CC3)cc2)cc1Nc1nccc(-c2cccnc2)n1 [STI-571, Imatinib]
- cell proliferation ([2]; MDA-MB-468, at the dose used in these assays): did not affect
- rescue from cell death induced by cisplatin ([2]; pretreatment, then cisplatin, MDA-MB-468): substantial rescue
- cell proliferation ([3]; HCC-1937, at the dose used in these assays): did not affect
- rescue from cell death induced by cisplatin ([3]; pretreatment, then cisplatin, HCC-1937): substantial rescue
- baseline NOXA expression ([4]; HCC-1937 and MDA-MB-468 cells): no effect
- p73-dependent induction of NOXA following cisplatin treatment ([4]; pretreatment, HCC-1937 and MDA-MB-468 cells, 6 hours): blocked

Molecule: N.N.[Cl][Pt][Cl] [cisplatin, cis-diaminedichloroplatinuim (II)]
- dissociation of Y99F TAp73 from ΔNp63α ([5]; MCF-10A cells, 6 hours): essentially no dissociation
- dissociation of ΔNp63α from wild-type TAp73 ([5]; MCF-10A cells, 6 hours): substantial dissociation
- dissociation of the ΔNp63α/TAp73 complex ([5]; endogenous proteins, breast cancer cells, following treatment): substantial dissociation
- effect of Y99F TAp73 expression on sensitivity [1]: little, if any, effect
- effect of wild-type TAp73 expression on sensitivity ([1]; P<0.01): significantly increased sensitivity
- effect of ectopic TAp73β expression on sensitivity [1]: significantly increased the sensitivity
- effect of TAp73 knockdown on the IC50 ([2]; TAp73-directed lentiviral shRNA vs vector control, MDA MB-468): more than 10 fold
- TAp73 as mediator of sensitivity [6]: not a mediator of sensitivity
- IC70 dose ([3]; HCC-1937 cells): 6.6 µM
- effect of TAp73 knockdown on the IC50 ([3]; TAp73-directed lentiviral shRNA vs vector control, HCC-1937): more than 10 fold
- induction of PUMA and NOXA ([4]; HCC-1937 cells, following treatment): robustly induced
- time to TAp73-dependent transcription of PUMA and NOXA ([4]; after cisplatin treatment): ≤ 2 h
- Percent Sensitive [7]: 57% ( 4/7)
- tyrosine phosphorylation of p73 ([8]; HCC-1937 and MB-468 cells, maximal at 6 hours): tyrosine phosphorylation of p73 was observed
- phosphorylation of Y99F TAp73 [8, 11]: little detectable phosphorylation
- phosphorylation of ectopic wild-type TAp73 [8, 11]: strongly phosphorylated

Molecule: COc1cccc2c1C(=O)c1c(O)c3c(c(O)c1C2=O)C[C@@](O)(C(=O)CO)C[C@@H]3O[C@H]1C[C@H](N)[C@H](O)[C@H](C)O1 [doxorubicin]
- effect of ectopic TAp73β expression on sensitivity [1]: did not significantly enhance sensitivity
- induction of other pro-apoptotic effectors ([4]; equally toxic concentration): no significant induction
- increase in PUMA ([4]; equally toxic concentration as cisplatin): 2 fold

B1: ΔNp63α (other)
chain: MLYLENNAQTQFSEPQYTNLGLLNSMDQQIQNGSSSTSPYNTDHAQNSVTAPSPYAQPSSTFDALSPSPAIPSNTDYPGPHSFDVSFQQSSTAKSATWTYSTELKKLYCQIAKTCPIQIKVMTPPPQGAVIRAMPVYKKAEHVTEVVKRCPNHELSREFNEGQIAPPSHLIRVEGNSHAQYVEDPITGRQSVLVPYEPPQVGTEFTTVLYNFMCNSSCVGGMNRRPILIIVTLETRDGQVLGRRCFEARICACPGRDRKADEDSIRKQQVSDSTKNGDGTKRPFRQNTHGIQMTSIKKRRSPDDELLYLPVRGRETYEMLLKIKESLELMQYLPQHTIETYRQQQQQQHQHLLQKQTSIQSPSSYGNSSPPLNKMNSMNKLPSVSQLINPQQRNALTPTTIPDGMGANIPMMGTHMPMAGDMNGLSPTQALPPPLSMPSTSHCTPPPPYPTDCSIVSFLARLGCSSCLDYFTTQGLTTIYQIEHYSMDDLASLKIPEQFRHAIWKGILDHRQLHEFSSPSHLLRTPSSASTVSVGSSETRGERVIDAVRFTLRQTISFPPRDEWNDFNFDMDARRNKQQRIKEEGE
notes: The text mentions hetero-tetramers with TAp73, but the stoichiometry was not measured; also called DNp63a; DNp63α
- binding result [9]: binds
- binding result [10]: binds
